According to patent US20070161697A1, “Hydrazide type compounds and the use thereof in pharmaceutical compositions for the treatment of cardiovascular diseases” (priority 2004, published 2007):

Tests used:
Assay type in all cases: in vivo
[1] = tested on: ApoE −/− mice; experiment: Analysis of coronary ischaemia in ApoE −/− mice; conditions: injected; normal or cholesterol-rich regimen; FIG. 15
From the text: (§1) Firstly, mice devoid of the coding gene for Apo lipoprotein E (ApoE −/−) have been used. These mice represent a model of choice of studying early atherosclerosis and development of a plaque rich in foamy macrophages. Male C57BL/6J mice homozygote for deletion of the ApoE gene were subjected to a normal dietary regimen until the age of eight weeks. These mice (n=8 per group) subsequently received ad libitum and for 12 weeks either a dietary regimen not enriched with cholesterol or fat, or an enriched regimen, containing 1.5 g/kg of cholesterol and 200 g/kg of fat of milk origin. The untreated mice underwent daily intraperitoneal injections of a solution containing DMSO at 10%. The treated mice received by intraperitoneal injection the same solution containing 2 or 20 μg (i.e. 0.1 mg/kg/day or 1 mg/kg/day) of the compound CGP 02-01. Following the blood sample for the biochemical analyses, the mice were killed.
After killing the ApoE −/− mice subjected to a normal dietary regimen or a dietary regimen rich in cholesterol, the hearts of these animals are observed macroscopically. The rate of ischaemic lesions is observed (FIG. 15) and quantified by the presence or absence of lesions (FIG. 16).

[2] = tested on: ApoE −/− mice; experiment: Total cholesterol in plasma, ApoE −/− mice on dietary regimen rich in cholesterol; conditions: for Plasma total cholesterol level: untreated 7.27 ± 0.55
From the text: as §1, with “The treated mice received by intraperitoneal injection the same solution containing 2 or 20 μg (i.e. 0.1 mg/kg/day or 1 mg/kg/day) of the compound CGP 02-01.” left out
The circulating total cholesterol may be measured by enzymatic assay using the commercially available kit. This assay may for example use an enzymatic sequence of the cholesterol-esterase/cholesteroloxydase/chromogenic peroxidase type. In summary, the total esterified cholesterol is transformed into free cholesterol and fatty acid by the action of cholesterol esterase. The non-esterified cholesterol is subsequently measured by the formation of quinoeimine in the presence of cholesterol oxidase and peroxidise. The intensity of the quinoneimine coloration is proportional to the quantity of cholesterol present in the sample.
When mice are subjected to a dietary regimen rich in cholesterol, the total cholesterol level decreases from a value of 7.27±0.55 g/L to a value of 6.86±0.65 g/L, i.e. a variation of 5.6%. This effect observed is dependent on the dose of CGP 02-01.

[3] = tested on: ApoE −/− mice; experiment: Triglyceride deposit in the aortas of ApoE −/− mice; conditions: control 185±33
From the text: as §1
The triglycerides which accumulate in the aortic wall were measured in the following manner: the aortas of the animals are rinsed with physiological saline after dissection. The lipid mass of the adventitia is eliminated by dissection and the intima media is dehydrated. The triglyceride level is measured and expressed as the weight of triglycerides per dry weight of tissue.

[4] = tested on: ApoE −/− mice; experiment: Circulating triglycerides, ApoE −/− mice on regimen rich in cholesterol and fat; conditions: 1 mg/kg; 3 months
From the text: as §1, with “Following the blood sample for the biochemical analyses, the mice were killed.” left out
Assay of serum triglycerides may be performed enzymatically using the commercially available kit. […] The glycerol 3 phosphate is subsequently transformed into dihydroxyacetone in generating oxygenated water (H202) which may be detected by formation of quinoneimine in the presence of parachlorophenol, amino-4-antipyrin and peroxidase. The intensity of the quinoneimine coloration is subsequently measured at 505 nm. This coloration is proportional to the quantity of triglycerides present in the sample.

[5] = tested on: Wistar rats; experiment: Insulin in plasma, rats on dietary regimen rich in fructose; conditions: 50 mg/kg oral
Procedure: Secondly, the activity of the compound CGP 02-01 was studied using a reference rat-fructose model. Groups of Wistar rats (n=12) were subjected for 3 weeks to a dietary regimen containing […] of fructose. […] Groups of rats subsequently received by forced feeding 50 mg/kg of the compound CGP 02-01 dissolved in a 2% tween solution prepared in methylcellulose. The blood samples for the biochemical analyses were performed after 1, 2 and 3 weeks. Independent groups of rats wee treated under the same conditions with metformin hydrochloride at a dose of 50 mg/kg. The metformin served as a reference in this metabolic syndrome model. Assay of insulin in plasma may be performed by radioimmunological assay using commercially available kits comprising specific anti-insulin antibodies of mice or rats. One may for example use the rat/mouse ELISA kits, Linco research (ref. EZRMI-13K).

[6] = tested on: ApoE −/− mice; experiment: HDL level in plasma, ApoE −/− mice on regimen rich in cholesterol
From the text: as §1, with “The treated mice received by intraperitoneal injection the same solution containing 2 or 20 μg (i.e. 0.1 mg/kg/day or 1 mg/kg/day) of the compound CGP 02-01.” left out
The plasma HDL level is measured by tried and trusted commercial methods which use high density lipoprotein separation reagents and by measurement of the cholesterol level associated with these high molecular weight lipoproteins (Biomérieux kit ref. 61533 for example).

[7] = tested on: ApoE −/− mice; experiment: Free cholesterol in plasma, ApoE −/− mice on normal non-enriched dietary regimen; conditions: 1 mg/kg; 3 months; p<0.05
From the text: as §1
Measurement of free cholesterol may be performed by an enzymatic method. The free cholesterol is oxidised by cholesterol oxidase into Delta 4 cholestenon and simultaneously produces hydrogen peroxide. The hydrogen peroxide subsequently allows oxidative condensation of the DHESA and the aminoantipyrinre, producing a blue colour. The quantity of free cholesterol is subsequently measured by the absorbance of the blue colour. […]

[8] = tested on: ApoE negative mice; experiment: Weight gain / abdominal fatty mass in ApoE negative mice on normal regimen; conditions: 20 μg per day for 41 days; normal dietary regimen; FIG. 2
Procedure: The mice were treated for 41 days at a dose of 20 μg of compound CGP02-01 per day. The control mice and the treated mice were fed with a normal dietary regimen without any cholesterol overload.

[9] = tested on: ApoE −/− mice; experiment: Abdominal fatty mass, ApoE mice on regimen rich in cholesterol and fat; conditions: 1 mg/kg, 3 months
From the text: as §1
ApoE mice subjected to a dietary regimen rich in cholesterol and fat were killed after 3 months of treatment with the compound CGP 02-01 at doses of 0.1 mg/kg and 1 mg/kg. The abdominal fatty mass was recovered by dissection, dried and expressed as dry weight.

Structure (SMILES): COc1cc(O)c(/C=N/NC(=O)c2cc3ccccc3s2)c(OC)c1 [CGP02-01, N′-[(1E)-(2-hydroxy-4,6-dimethoxyphenyl)methylene]-1-benzothiophene-2-carbohydrazide]
- Coronary ischaemic (cardiac) lesions [1]: considerably reduced
- Plasma total cholesterol level ([2]; 0.4 mg/kg): 8.08 ± 0.62 g/L
- Variation of total cholesterol level vs untreated ([2]; 1 mg/kg, 3 months): 5.6%
- Plasma total cholesterol level ([2]; 1 mg/kg, 3 months): 6.86 ± 0.65 g/L
- Triglyceride deposit on the aortic wall ([3]; 0.1 mg/kg): 156 ± 31 µg/mg
- Triglyceride deposit on the aortic wall ([3]; 1 mg/kg, three months, n=8): 131 ± 42 µg/mg (dry weight)
- Variation of plasma triglyceride level, treated in relation to untreated mice [4]: twice as great
- Variation (reduction) of insulin level [5]: 11.3%
- Plasma insulin level ([5]; 3 weeks, control 1.85±0.04): 1.64 ± 0.03 ng/mL
- Plasma HDL level ([6]; 0.1 mg/kg, cholesterol-rich regimen, untreated 0.11 ± 0.05): 0.15 ± 0.06 g/L
- Plasma HDL level ([6]; 1 mg/kg, cholesterol-rich regimen, untreated 0.11 ± 0.05): 0.15 ± 0.05 g/L
- Variation of plasma HDL level ([6]; regimen rich in cholesterol and fatty acid): 38.2%
- Plasma HDL level ([6]; regimen rich in cholesterol and fatty acid, dose not stated, control 0.11±0.005): 0.15 ± 0.005 g/L
- Effect on plasma free cholesterol variation vs untreated [7]: 22.7%
- Weight gain (abdominal fatty mass) [8]: reduction in weight gain
- Reduction in abdominal fatty mass [9]: 48.3%
- Abdominal fatty mass (dry weight) ([9]; control 760±231, p<0.01): 393 ± 78 mg
